In US5492890A, “Polypeptides for promoting cell attachment” (The Scripps Research Institute, priority 1991, dated 1996):

Columns and labels:
GPIIb-IIIa [1] = target: T1, GPIIb-IIIa (Homo sapiens, UniProt P05106+P08514); test: Direct binding of 125I-labelled ligands to microtiter wells coated with purified GPIIb-IIIa
T1 construct: platelet membrane GPIIb-IIIa protein from lysed platelets; from tissue
From the text: To determine if the insert coded polypeptide containing fibronectin residues 1235-1436 bound GPIIb-IIIa, the capacity of microtiter wells coated with purified GPIIb-IIIa to bind the radiolabelled fusion-protein preparation was ascertained (Table 3). In addition, the radiolabelled material bound to the insolubilized GPIIb-IIIa was recovered and analyzed by SDS-PAGE followed by radioautography. […] The isolated protein products were a mixture of insert coded polypeptides containing fusion protein and maltose binding protein breakdown products. Only those bands containing the insert-coded polypeptide bound to the insolubilized GPIIb-IIIa and that binding was inhibitable by either EDTA or the monoclonal antibody FnI-16.

GPIIb-IIIa [2] = target: T1, GPIIb-IIIa; test: Inhibition of 125I-Fn binding to immobilized GPIIb-IIIa by fusion proteins (competition binding); conditions: varying concentrations, FIG. 3
Method: The ability of a fusion protein or polypeptide of the present invention to inhibit the binding interaction between GPIIb-IIIa and either fibronectin or fibrinogen was measured by competition binding to immobilized GPIIb-IIIa.
Incubate the GPIIb-IIIa in the plate for 16 hours at 4° C., then the unbound material is removed from the wells which are then blocked with 150 μl of 5% BSA in the same buffer for 1 hour at room temperature. Wash the wells three times with 150 μl of Tyrode's buffer with 5 mM HEPES, 1 mM MgCl2, 1 mg/ml dextrose, 1 mg/ml BSA. […] Incubate 4 hours to overnight at room temperature (with lead shield).
Carefully remove radioactive samples and wash 3 times with 150 μl Tyrodes with 5 mM HEPES, 1 mMMgCl2, 1 mg/ml dextrose, 1 mg/ml BSA. Count with a Gamma Counter and elute by boiling in SDS-PAGE loading Buffer.
In an alternative embodiment, non-radioactive Fn may be used instead of radioactive, and detected by reacting with an appropriate anti-Fn antibody and HRP-conjugated secondary antibody. Using this variation, each antibody is incubated with the washed plate for 1 hr. The anti-Fn antibody is titrated, but a 1:1000 dilution of HRP-conjugated antibody from most manufacturers works fine.

GPIIb-IIIa [3] = target: T1, GPIIb-IIIa; test: Competition assay: synthetic polypeptide inhibition of biotinylated Fn binding to purified GPIIb-IIIa; conditions: for inhibition of Fn binding to GPIIb-IIIa: tested at 200 μM polypeptide
Method: The competition assays are performed as described by Charo et al., J. Biol. Chem., 266:1415-1421 (1991). The competition assay is performed by first admixing into individual wells of a 96 well microtiter plate (Immunlon, Dynatech) 10 μg/ml of purified GPIIb-IIIa, prepared in Example 1, diluted in HEPES-saline buffer, pH 7.4, consisting of 10 mM HEPES, 150 mM NaCl 1 mM CaCl2 and 1 mMMgCl2. The plates are maintained for 16 hours at 4° C. to allow the purified receptor to adsorb onto the walls of the wells. The receptor-coated wells are then washed two times with Modified Tyrode's buffer, prepared as described in Example 1, to remove any non-bound receptor from the receptor-coated wells. Non-receptor-occupied sites on the microtiter wells are blocked by admixing 5% BSA dissolved in Modified Tyrode's buffer into each well and maintaining the plate for 2 hours at room temperature.
After removing the blocking solution and washing the blocked wells as described above, 50 μl of a 10 nM solution of biotinylated Fn in Modified Tyrode's buffer is admixed into each well in the presence of polypeptides prepared in Example 9a ranging in concentration from 0.1 μM to 200 μM polypeptide to form a solid-liquid phase receptor-protein admixture. Fn admixed in the absence of polypeptides served as a positive control for the competition assay. Purified Fn is prepared as described in Example 2.
The resultant purified Fn is then biotinylated as described by Dale et al., Blood, 77:1096-1099 (1991). Briefly, for biotinylation, Fn is first dialyzed into 0.1M NaHCO3 containing 0.1M NaCl at pH 8.0 and centrifuged at 100,000× g for 30 minutes at 4° C. to remove any particulate matter. The protein concentration is adjusted to 0.5 mg/ml in 50 mM sodium borate at pH 8.5. […]
The Fn-peptide admixtures are maintained in GPIIb-IIIa-coated wells for 2 hours at room temperature to allow the biotinylated Fn to bind to the receptor. Following this maintenance period, the reacted wells are washed as described above and the amount of biotinylated Fn bound to GPIIb-IIIa is determined by admixing 0.1 ml avidin bound to biotinylated horseradish peroxidase H (Hrp) (Sigma, St. Louis, Mo.) at a 1:2000 dilution to form an avidin-biotinylated Fn admixture. […] Excess avidin Hrp is removed by washing as described and the presence of biotinylated Fn bound to purified GPIIb-IIIa is detected by admixture of 50 μl of freshly prepared chromogenic substrate solution containing 4.0 mg/ml 0-phenylenediamine and 0.012% (v/v) hydrogen peroxide in CP buffer as described in Example 3a. After maintaining the color developing-reaction admixture for 10 minutes at 20° C., the reaction is stopped with the admixture of 2N H2 SO4 and the stopped reactions are measured for absorbance as described in Example 3a.

Fibronectin
binding of radiolabelled ligand to insolubilized GPIIb-IIIa (GPIIb-IIIa [1]; GPIIb-IIIa coated wells): Specific binding
125I-labelled ligand bound to GPIIb-IIIa (GPIIb-IIIa [1]; inhibitor 2 mM EDTA): 8 Counts × 10^-3
125I-labelled ligand bound to GPIIb-IIIa (GPIIb-IIIa [1]; inhibitor Mab 16.12): 12 Counts × 10^-3
125I-labelled ligand bound to GPIIb-IIIa (GPIIb-IIIa [1]; no inhibitor): 42 Counts × 10^-3
inhibition of fibronectin binding to purified GPIIb-IIIa (GPIIb-IIIa [2]): inhibited fibronectin binding

(2:197-274): polypeptide of SEQ ID NO 2 residues 197-274, Fn residues 1359-1436
inhibition of Fn binding to GPIIb-IIIa (GPIIb-IIIa [3]): inhibit Fn binding to GPIIb-IIIa

(2:73-274): polypeptide of SEQ ID NO 2 residues 73-274, Fn residues 1235-1436
inhibition of Fn binding to GPIIb-IIIa (GPIIb-IIIa [3]): inhibit Fn binding to GPIIb-IIIa

(2:248-274): synthetic polypeptide of SEQ ID NO 2 residues 248-274, Fn residues 1410-1436 (IGQQSTVSDVPRDLEVVAATPTSLLIS)
polypeptide concentration for maximal inhibition of Fn binding to GPIIb-IIIa (GPIIb-IIIa [3]; 10 nM biotinylated Fn): approximately 200 μM
competitive inhibition of Fn binding to purified GPIIb-IIIa (GPIIb-IIIa [3]; 10 nM biotinylated Fn, 0.1 to 200 μM polypeptide): competitively inhibits
